# Results published in patent publication US5153124A, “Hydroxyl-ML-236B derivatives, their preparation and use” (Sankyo Company Limited, priority 1985, dated 1992).
# System: cholesterol biosynthesis
# Experiment: Inhibitory activity against cholesterol biosynthesis (method of J. Biol. Chem. 234, 2835 (1959))
# Assay type: biochemical
# Details: method of Journal of Biological Chemistry, 234, 2835 (1959)
# Text: The inhibitory activities of certain of the compounds of the invention, in terms of the concentration in μg/ml required to inhibit cholesterol biosynthesis by 50% [measured by the method described in the Journal of Biological Chemistry, 234, 2835 (1959)], are as follows: […]
row,Structure (SMILES),concentration required to inhibit cholesterol biosynthesis by 50% [µg/mL]
1,"CC(O)[C@H](C)C(=O)O[C@H]1CCC=C2C=C[C@H](C)[C@H](CC[C@@H]3C[C@@H](O)CC(=O)O3)[C@H]21 (some centres unmarked) [3""-hydroxy-ML-236B lactone, 3""-Hydroxy-ML-236B lactone]",0.039
2,"CC(O)[C@H](C)C(=O)O[C@H]1C[C@H](O)C=C2C=C[C@H](C)[C@H](CC[C@@H](O)C[C@@H](O)CC(=O)O)[C@H]21 (single isomer, unassigned) [Sodium 3"",6'β-dihydroxy-ML-236B carboxylate, Substance B]",0.024
3,"CC(O)[C@H](C)C(=O)O[C@H]1CCC=C2C=C[C@H](C)[C@H](CC[C@@H](O)C[C@@H](O)CC(=O)O)[C@H]21 (some centres unmarked) [Sodium 3""-hydroxy-ML-236B carboxylate]",0.0032
4,"CC[C@H](C)C(=O)O[C@H]1CCC=C2C=C[C@H](C)[C@H](CC[C@@H]3C[C@@H](O)CC(=O)O3)[C@H]21 [ML-236B lactone, reference compound]",0.010
5,"CC(O)[C@H](C)C(=O)O[C@H]1C[C@H](O)C=C2C=C[C@H](C)[C@H](CC[C@@H](O)C[C@@H](O)CC(=O)O)[C@H]21 (single isomer, unassigned) [Sodium 3"",6'β-dihydroxy-ML-236B carboxylate, Substance A]",0.0018
